Our source for the inhibition and IC50 values is EP1674457B1, “Derivatives of squaric acid with anti-proliferative activity” (GPC Biotech AG, priority 2004, dated 2006).

Bounds are passed on as bounds.

For assay [1], the system named is A2780. In words: SRB assay, inhibition of tumor cell growth at 1 µM (Example 61). Format: cell-based, Human. The settings on record: Homo sapiens, 48 hours. How it is done:
(§1) 3,000-15,000 cells/well were exposed to the test compounds at a concentration of 1 µM for 48 hours, and cytotoxicty was measured using the SRB assay according to Shekan et al (J Natl Cancer Inst (1990) 82, 1107-112). Briefly, cells were plated in 96 well dishes 24 hours prior to compound addition. The assay was terminated with the addition of cold TCA to a final concentration of 10% and the plates were incubated for one hour at 4°C. The plates were then washed 5 times with water and 100µl of a Sulforhodamine B solution (4%) was added to each well. The plate was then incubated for 10 minutes at room temperature before removal of unbound dye by washing with 1% acetic acid. The bound dye was solubilized with 10 mM Trizma base and the absorbance read at OD570. Inhibitory activity of the compounds was calculated as % inhibition compared to cells treated with the solvent (DMSO). Table 2 represents the growth inhibitory activity of certain compunds of the invention across a number of tumor cell lines.
On the technique in general: Sulforhodamine B stains cellular protein and so reports cell mass.

Assay [2] relates to A2780. Put plainly: IC50 determination by SRB assay (Example 62). The class given is cell-based. The settings on record: Homo sapiens. How it is done: as §1
(§2) The assay was performed similar to example 61. However, test compounds were added at various concentrations, such as from 0.001 to about 0.1 µM, from 0.1 to about 10 µM, or from 1 to about 10 µM, as the need may be, in order to estimate the IC50 values. IC50 values were determined by plotting the percentage inhibitory activity for each concentration, fitting a curve using appropriate software and estimating the concentration at which 50% inhibition of growth would occur.

Assay [3] relates to SW-620. In words: IC50 determination by SRB assay (Example 62). Format: cell-based. The settings on record: Homo sapiens. On the procedure: as §1, §2
Assay [4] deals with MCF7. In words: IC50 determination by SRB assay (Example 62). Format: cell-based. The settings on record: Homo sapiens. On the procedure:
as §1, §2

The subject of assay [5] is HCT-116. In words: IC50 determination by SRB assay (Example 62). The class given is cell-based. The settings on record: Homo sapiens, HCT-116; HCY-116. How it is done: as §1, §2
In assay [6] the test system is SW-620. In words: SRB assay, inhibition of tumor cell growth at 1 µM (Example 61). The settings on record: Homo sapiens, 48 hours. Format: cell-based. How it is done: as §1
In assay [7] the test system is MCF7. The description is as above. The class given is cell-based. The settings on record: Homo sapiens, 48 hours. How it is done: as §1
The subject of assay [8] is A-549. Described as above. Format: cell-based. The settings on record: Homo sapiens, A549, 48 hours. On the procedure:
as §1

In assay [9] the test system is PC-3. The assay is described as above. The class given is cell-based. The settings on record: Homo sapiens, 48 hours. How it is done: as §1
The test system of assay [10] is HCT-116. Described as above. The class given is cell-based. The settings on record: Homo sapiens, 48 hours. On the procedure: as §1
Assay [11] concerns A-549. In words: IC50 determination by SRB assay (Example 62). The class given is cell-based. The settings on record: Homo sapiens, A549. On the procedure: as §1, §2
Assay [12] relates to PC-3. Put plainly: IC50 determination by SRB assay (Example 62). Format: cell-based. The settings on record: Homo sapiens. How it is done:
as §1, §2

Consider `O=c1c(NCCCCCCOc2ccc(Cl)cc2)c(Nc2cccnc2)c1=O` [SQ-1B], for which the inhibition (commonly the drop in the measured response relative to a control, in per cent) at 1 µM with A2780 [1] is over 80%; with SW-620 [6] it was over 20%; in the assay with MCF7 [7] it was over 80%; in the assay with A-549 [8], over 20%; in the assay on PC-3 [9] it was over 50%; in the assay on HCT-116 [10], over 80%. Moreover, the IC50 (usually the concentration needed to halve the response being measured) in the assay with A2780 [2] is under 100 nM; in the assay on SW-620 [3], under 2000 nM; with MCF7 [4], under 0.01 µM; in the assay with HCT-116 [5], under 20 nM.

In the case of `O=c1c(NCCCCCOc2ccc(Cl)cc2)c(Nc2cccnc2)c1=O` [SQ-2], the inhibition at 1 µM in the assay on A2780 [1] is over 80%; with SW-620 [6], over 50%; with MCF7 [7], over 80%; in the assay with A-549 [8] it was over 50%; in the assay on PC-3 [9], over 50%; in the assay with HCT-116 [10], over 80%. The 50% inhibitory concentration (IC50) in the assay on A2780 [2] is under 20 nM; in the assay on SW-620 [3], under 10000 nM; with MCF7 [4] it was under 0.02 µM; in the assay on HCT-116 [5], under 20 nM.

As to `O=c1c(NCCCCCCOc2ccccc2)c(Nc2cccnc2)c1=O` [SQ-3], the inhibition at 1 µM is over 80% in the assay on A2780 [1]; over 50% in the assay on SW-620 [6]; over 5% with MCF7 [7]; over 50% in the assay on A-549 [8]; over 50% in the assay on PC-3 [9]; over 80% with HCT-116 [10]. In addition, the IC50 in the assay with SW-620 [3] is under 500 nM; in the assay on MCF7 [4], under 10 µM; in the assay on A-549 [11] it was under 500 nM; with HCT-116 [5] it was under 100 nM.

On to `Cc1ccc(OCCCCCCNc2c(Nc3cccnc3)c(=O)c2=O)cc1` [SQ-4], for which the inhibition at 1 µM in the assay on A2780 [1] is over 80%; in the assay with SW-620 [6] it was over 50%; in the assay with A-549 [8], over 50%; with PC-3 [9], over 50%; with HCT-116 [10], over 80%. In addition, the half-inhibitory concentration (IC50) in the assay with SW-620 [3] is under 2000 nM; in the assay on MCF7 [4], under 10 µM; with A-549 [11] it was under 500 nM; in the assay on HCT-116 [5], under 100 nM.

Regarding `O=c1c(NCCc2ccc(Oc3ccc(Cl)cc3)cc2)c(Nc2cccnc2)c1=O` [SQ-6, 3-{2-[4-(4-Chlorophenoxy)-phenyl]-ethylamino}-4-(pyridin-3-yl-amino)-cyclobut-3-ene-1,2-dione], the results for the IC50 in the assay on A2780 [2], in the assay on PC-3 [12] and with HCT-116 [5] were under 20 nM, under 500 nM and under 100 nM, respectively.

Turning to `O=c1c(NCCCCCCOc2ccccc2)c(Nc2ccncc2)c1=O` [SQ-12, 3-(6-Phenoxyhexylamino)-4-(pyridin-4y1-amino)-3-cyclobutene-1,2-dione], the inhibition at 1 µM in the assay on A2780 [1] is over 80%; in the assay with SW-620 [6], over 20%; with MCF7 [7] it was over 20%; in the assay with A-549 [8], over 50%; in the assay on PC-3 [9] it was over 50%; in the assay with HCT-116 [10] it was over 80%. Also, the IC50 with A2780 [2] is under 20 nM; in the assay with MCF7 [4] it was under 10 µM; in the assay with A-549 [11] it was under 2000 nM; in the assay on HCT-116 [5], under 20 nM.

For `O=c1c(NCCCCCCOc2cccnc2)c(Nc2ccncc2)c1=O` [SQ-16, 3-(Pyridin-4-ylamino)-4-[6-(pyridin-3-yloxy)-hexylamino]-cyclobut-3-ene-1,2-dione], the inhibition at 1 µM with A2780 [1] was over 80%; in the assay with SW-620 [6], over 20%; with MCF7 [7] it was over 5%; in the assay on A-549 [8], over 20%; in the assay with PC-3 [9] it was over 20%; with HCT-116 [10], over 80%. Besides, the concentration for half-maximal inhibition (IC50) is under 100 nM in the assay with A2780 [2], under 500 nM with PC-3 [12] and under 500 nM in the assay with HCT-116 [5].

With `O=c1c(NCCc2ccc(Oc3ccc(Cl)cc3)cc2)c(Nc2ccncc2)c1=O` [SQ-20, 3-{2-[4-(4-Chlorophenoxy)-phenyl]-ethylamino}-4-(pyridin-4-yl-amino)-cyclobut-3-ene-1,2-dione], the IC50 was under 20 nM in the assay with A2780 [2], under 500 nM with PC-3 [12] and under 100 nM in the assay on HCT-116 [5].

On to `O=c1c(NCCCCCCCc2ccccc2)c(Nc2ccncc2)c1=O` [SQ-22, 3-(7-Phenylheptylamino)-4-(pyridin-4-yl-amino)-cyclobut-3-ene-1,2-dione], for which the inhibition at 1 µM with A2780 [1] was over 80%; in the assay on SW-620 [6], over 50%; in the assay on MCF7 [7], over 20%; in the assay with A-549 [8] it was over 50%; with PC-3 [9], over 50%; with HCT-116 [10], over 80%. Also, the IC50 in the assay with A2780 [2], with PC-3 [12] and in the assay on HCT-116 [5] was under 20 nM throughout.

As for `O=c1c(NCCCCCCOc2ccc(OCCN3CCOCC3)cc2)c(Nc2ccncc2)c1=O` [SQ-23, 3-[6-(4-(2-Morpholin-4-yl-ethoxy)-phenoxy)-hexylamino]-4-(pyridin-4-yl-amino)-cyclobut-3-ene-1,2-dione], the inhibition at 1 µM in the assay on A2780 [1] is over 80%; with SW-620 [6] it was over 20%; in the assay on A-549 [8], over 50%; in the assay with PC-3 [9], over 50%; with HCT-116 [10] it was over 80%. For the same compound, the IC50 in the assay with A2780 [2] is under 20 nM; in the assay on MCF7 [4] it was under 0.5 µM; in the assay with A-549 [11] it was under 20 nM; in the assay with PC-3 [12] it was under 20 nM; with HCT-116 [5] it was under 20 nM.

As for `O=c1c(NCCCCCCOc2ccc(OCCN3CCOCC3)cc2)c(Nc2cccnc2)c1=O` [SQ-24, 3-[6-(4-(2-Morpholin-4-yl-ethoxy)-phenoxy)-hexylamino]-4-(pyridin-3-yl-amino)-cyclobut-3-ene-1,2-dione], the inhibition at 1 µM in the assay on A2780 [1] was over 80%; in the assay on SW-620 [6], over 20%; with MCF7 [7] it was over 20%; with A-549 [8], over 50%; in the assay on PC-3 [9], over 50%; in the assay on HCT-116 [10], over 80%. For the same compound, the IC50 with A2780 [2] was under 20 nM; with SW-620 [3], under 2000 nM; with A-549 [11], under 100 nM; in the assay on PC-3 [12] it was under 100 nM; in the assay on HCT-116 [5], under 20 nM.

Regarding `O=c1c(NCCCCCCSc2ccc(Cl)cc2)c(Nc2ccncc2)c1=O` [SQ-27, 3-[6-(4-Chlorophenylsulfanyl)-hexylamino]-4-(pyridin-4-yl-amino)-cyclobut-3-ene-1,2-dione], the inhibition at 1 µM is over 80% with A2780 [1]; over 20% in the assay with SW-620 [6]; over 20% in the assay with MCF7 [7]; over 50% in the assay on A-549 [8]; over 50% with PC-3 [9]; over 80% in the assay with HCT-116 [10]. Moreover, the IC50 in the assay on SW-620 [3] was under 500 nM; with A-549 [11], under 2000 nM; in the assay with HCT-116 [5] it was under 100 nM.

On to `O=c1c(NCc2ccc(COc3ccc(Cl)cc3)cc2)c(Nc2cccnc2)c1=O` [SQ-32, 3-[4-(4-Chlorophenoxymethyl)-benzylamino]-4-(pyridin-3-yl-amino)-cyclobut-3-ene-1,2-dione], for which the inhibition at 1 µM in the assay with A2780 [1] is over 80%; in the assay on SW-620 [6] it was over 5%; in the assay with MCF7 [7] it was over 20%; in the assay with A-549 [8], over 20%; with PC-3 [9], over 50%; in the assay with HCT-116 [10] it was over 80%. Further, the IC50 was under 100 nM in the assay with A2780 [2], over 10000 nM with SW-620 [3], over 10 µM in the assay on MCF7 [4] and under 100 nM in the assay on HCT-116 [5].

On to `O=c1c(NCc2cccc(COc3ccc(Cl)cc3)c2)c(Nc2cccnc2)c1=O` [SQ-35, 3-[3-(4-Chlorophenoxymethyl)-benzylamino]-4-(pyridin-3-yl-amino)-cyclobut-3-ene-1,2-dione], for which the IC50 in the assay on A2780 [2] is under 10000 nM; in the assay with PC-3 [12], over 10000 nM; in the assay on HCT-116 [5], under 10000 nM.

As for `O=c1c(NCCC2CCN(Cc3ccccc3)CC2)c(Nc2cccnc2)c1=O` [SQ-37, 3-[2-(1-Benzylpiperidin-4-yl)ethylamino]-4-(pyridin-3-yl-amino)-cyclobut-3-ene-1,2-dione], the IC50 with A2780 [2] is under 2000 nM; in the assay on PC-3 [12], under 10000 nM; in the assay with HCT-116 [5] it was under 2000 nM.

In the case of `O=c1c(NCCC2CCN(Cc3ccccc3)CC2)c(Nc2ccncc2)c1=O` [SQ-38, 3-[2-(1-Benzylpiperidin-4-yl)-ethylamino]-4-(pyridin4-yl-amino)-cyclobut-3-ene-1,2-dione], the IC50 with A2780 [2], with PC-3 [12] and with HCT-116 [5] was under 10000 nM each time.

As for `O=c1c(NCCCCCCOc2ccc(CN3CCOCC3)cc2)c(Nc2cccnc2)c1=O` [SQ-39, 3-(6-[4-(Morpholinomethyl)-phenoxy]-hexylamino)-4-(pyridin-3-yl-amino)-3-cyclobutene-1,2-dione], the inhibition at 1 µM in the assay on A2780 [1] is over 80%; in the assay on SW-620 [6], over 20%; in the assay on MCF7 [7] it was over 5%; with A-549 [8], over 50%; in the assay on PC-3 [9], over 20%; in the assay on HCT-116 [10] it was over 80%. Moreover, the IC50 with A2780 [2] is under 20 nM; in the assay with PC-3 [12], under 100 nM; with HCT-116 [5], under 20 nM.
